Laboratory results taken from patent publication EP2951180B1, “2,6,7,8 SUBSTITUTED PURINES AS HDM2 INHIBITORS” (Merck Sharp & Dohme Corp., priority 2013, dated 2014).
pIC50: −log10 of the molar value.

target: T1, HDM2 (Homo sapiens, UniProt Q00987); assay: HDM2 FRET assay (inhibition of binding of FITC labeled p53-pocket peptide to HDM2); details: FRET IC50
T1 construct: Thioredoxin (N); made in house; host or cells: E. coli strain BL21(DE3)Rosetta
Procedure, shortened: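 Signal is read as the 520/495 nm emission ratio and converted to percent inhibition; nonlinear sigmoidal regression yields IC50. The assay mixes HDM2 (0.5 nM), FITC-p53 peptide (3 nM) and Tb anti-His antibody (0.25 nM) at 0.1% DMSO.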

T1 sequence (Q00987 17-125): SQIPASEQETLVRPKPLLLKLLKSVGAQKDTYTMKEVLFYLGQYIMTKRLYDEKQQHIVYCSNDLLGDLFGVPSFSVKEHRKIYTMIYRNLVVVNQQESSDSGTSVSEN

Molecule `C[C@@H](Nc1nc(C(=O)O)nc2nc(N3C4CCCC3CC4)n(C[C@H]3CC[C@H](C)CC3)c12)C1CCC1` [Example 11.26, 8-(8-azabicyclo[3.2.1]oct-8-yl)-6-{[(1R)-1-cyclobutylethyl]amino}-7-[(trans-4-methylcyclohexyl)methyl]-7H-purine-2-carboxylic acid] has a pIC50 of 8.45.

same assay, conditions: Table 11; read-out: FRET IC50

Point of comparison: `CC1CCCCN1c1nc2nc(C(=O)O)nc(N[C@H](C)C3CCC3)c2n1C[C@H]1CC[C@H](C)CC1` (stereo partly drawn) [Example 11.29, 6-{[(1R)-1-cyclobutylethyl]amino}-7-[(trans-4-methylcyclohexyl)methyl]-8-(2-methylpiperidin-1-yl)-7H-purine-2-carboxylic acid], pIC50 8.65. Against it:
- C[C@@H](Nc1nc(C(=O)O)nc2nc(N3CCC4CCCCC4C3)n(C[C@H]3CC[C@H](C)CC3)c12)C1CCC1 (stereo partly drawn) [Example 11.22, 6-{[(1R)-1-cyclobutylethyl]amino}-7-[(trans-4-methylcyclohexyl)methyl]-8-(octahydroisoquinolin-2(1H)-yl)-7H-purine-2-carboxylic acid] — 0.91 log units lower, 7.74
- C[C@@H](Nc1nc(C(=O)O)nc2nc(N3CCCC4CCCCC43)n(C[C@H]3CC[C@H](C)CC3)c12)C1CCC1 (stereo partly drawn) [Example 11.23, 6-{[(1R)-1-cyclobutylethyl]amino}-7-[(trans-4-methylcyclohexyl)methyl]-8-(octahydroquinolin-1(2H)-yl)-7H-purine-2-carboxylic acid] — within 0.2 log units, 8.51
- C[C@@H](Nc1nc(C(=O)O)nc2nc(N3CCCC3c3cccc(F)c3)n(C[C@H]3CC[C@H](C)CC3)c12)C1CCC1 (stereo partly drawn) [Example 11.28, 6-{[(1R)-1-cyclobutylethyl]amino}-8-[2-(3-fluorophenyl)pyrrolidin-1-yl]-7-[(trans-4-methylcyclohexyl)methyl]-7H-purine-2-carboxylic acid] — within 0.2 log units, 8.82
- CC(C)CN(C)c1nc2nc(C(=O)O)nc(N[C@H](C)C3CCC3)c2n1C[C@H]1CC[C@H](C)CC1 [Example 11.30, 6-{[(1R)-1-cyclobutylethyl]amino}-7-[(trans-4-methylcyclohexyl)methyl]-8-[methyl(2-methylpropyl)amino] -7H-purine-2-carboxylic acid] — within 0.2 log units, 8.78
- COc1cccc(C2CCCCN2c2nc3nc(C(=O)O)nc(N[C@H](C)C4CCC4)c3n2C[C@H]2CC[C@H](C)CC2)c1 (stereo partly drawn) [Example 11.31, 6-{[(1R)-1-cyclobutylethyl]amino}-8-[2-(3-methoxyphenyl)piperidin-1-yl]-7-[(trans-4-methylcyclohexyl)methyl]-7H-purine-2-carboxylic acid] — the same, 8.65
- CCOCC1CCCN1c1nc2nc(-c3noc(=O)[nH]3)nc(N[C@H](C)C3CCC3)c2n1C[C@H]1CC[C@H](C)CC1 (stereo partly drawn) [Example 11.32, 3-(6-{[(1R)-1-cyclobutylethyl]amino}-8-[2-(ethoxymethyl)pyrrolidin-1-yl]-7-[(trans-4-methylcyclohexyl)methyl]-7H-purin-2-yl)-1,2,4-oxadiazol-5(2H)-one] — 0.55 log units lower, 8.10
- CCC1CCCN1c1nc2nc(-c3noc(=O)[nH]3)nc(N[C@H](C)C3CCC3)c2n1C[C@H]1CC[C@H](C)CC1 (stereo partly drawn) [Example 11.33, 3-(6-{[(1R)-1-cyclobutylethyl]amino}-8-(2-ethylpyrrolidin-1-yl)-7-[(trans-4-methylcyclohexyl)methyl]-7H-purin-2-yl)-1,2,4-oxadiazol-5(2H)-one] — 0.38 log units lower, 8.27
- CC1CCCN1c1nc2nc(-c3noc(=O)[nH]3)nc(N[C@H](C)C3CCC3)c2n1C[C@H]1CC[C@H](C)CC1 (stereo partly drawn) [Example 11.34, 3-[6-{[(1R)-1-cyclobutylethyl]amino}-7-[(trans-4-methylcyclohexyl)methyl]-8-(2-methylpyrrolidin-1-yl)-7H-purin-2-yl]-1,2,4-oxadiazol-5(2H)-one] — 1.05 log units lower, 7.60
- CCCC1CCCN1c1nc2nc(-c3noc(=O)[nH]3)nc(N[C@H](C)C3CCC3)c2n1C[C@H]1CC[C@H](C)CC1 (stereo partly drawn) [Example 11.35, 3-[6-{[(1R)-1-cyclobutylethyl]amino}-7-[(trans-4-methylcyclohexyl)methyl]-8-(2-propylpyrrolidin-1-yl)-7H-purin-2-yl]-1,2,4-oxadiazol-5(2H)-one] — 0.29 log units lower, 8.36
